Assay results from patent US20240383856A1 (Zedira GmbH, priority 2021, published 2024).

Tests used:
[1] = Caco-2 permeability assay (CacoReady kit); assay type: in vitro ADME; conditions: human, Caco-2, Caco-2 barrier, CacoReady kit; above 1×10^−6 cm/s classified as permeable
Procedure, shortened: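 Intestinal permeability modelled with kit-supplied Caco-2 barriers, run as the maker specifies; each compound reported as Papp.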

[2] = logD by shake flask method (octanol / PBS pH 7.4, HPLC); assay type: physicochemical; conditions: octanol / PBS pH 7.4, shake flask
Procedure, shortened: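 LogD obtained by HPLC measurement of how the compound distributes between PBS (pH 7.4) and octanol in a shake-flask experiment.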

[3] = target: T1, recombinant human transglutaminase 2 (Homo sapiens, UniProt P21980); experiment: Transglutaminase assay (DCC-assay): incorporation of dansylcadaverine into dimethylcasein; assay type: biochemical; conditions: recombinant human TG2 10 nM; dansylcadaverine incorporation into dimethylcasein; read-out: IC50 TG2
T1 construct: purchased Zedira T022
T1 sequence (P21980 1-687): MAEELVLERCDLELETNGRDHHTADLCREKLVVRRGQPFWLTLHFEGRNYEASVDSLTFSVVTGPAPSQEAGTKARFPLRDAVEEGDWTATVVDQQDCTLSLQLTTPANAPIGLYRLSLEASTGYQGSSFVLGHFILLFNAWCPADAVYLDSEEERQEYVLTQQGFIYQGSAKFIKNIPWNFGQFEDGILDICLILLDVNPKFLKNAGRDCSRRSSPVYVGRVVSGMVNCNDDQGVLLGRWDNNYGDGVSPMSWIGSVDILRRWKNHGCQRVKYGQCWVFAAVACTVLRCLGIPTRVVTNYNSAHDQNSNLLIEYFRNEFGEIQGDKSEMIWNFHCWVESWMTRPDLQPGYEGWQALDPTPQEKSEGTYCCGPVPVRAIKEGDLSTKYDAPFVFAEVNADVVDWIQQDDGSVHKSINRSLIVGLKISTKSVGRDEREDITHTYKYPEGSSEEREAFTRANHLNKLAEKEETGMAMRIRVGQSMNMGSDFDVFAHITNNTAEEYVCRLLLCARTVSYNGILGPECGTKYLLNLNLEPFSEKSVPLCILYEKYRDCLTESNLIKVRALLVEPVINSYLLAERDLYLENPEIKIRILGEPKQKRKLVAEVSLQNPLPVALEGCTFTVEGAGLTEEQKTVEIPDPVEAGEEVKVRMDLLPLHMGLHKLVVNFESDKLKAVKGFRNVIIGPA
Procedure, shortened: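 IC50 is the inhibitor level that blocks 50% of initial activity. Activity is the fluorescence slope (λex 330, λem 500 nm) between 20 and 30 min of a 37 °C run, relative to a 2% DMSO control. The enzyme is recombinant human tissue transglutaminase, 10 nM final, tested against a 1:2 inhibitor dilution series in a pH 8.0 mix with 10 mM CaCl2, 10 mM glutathione, 16.7 µM dansylcadaverine and 4 µM N,N-dimethylcasein.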

| Papp [1] [×10⁻⁶ cm/s] | logD [2] | IC50 [3] [nM] | Structure (SMILES) |
| --- | --- | --- | --- |
| < 1 | < 1 | 400 to 2500 | CNC(=O)C(=O)CC[C@H](NC(=O)c1ccc2c(c1)CC(=O)NC2)C(=O)Nc1cccn(CC(=O)NC2(C(=O)O)C3CC4CC2CC(C(F)(F)F)(C4)C3)c1=O (stereo partly drawn) [II-186, (S)-N1-(1-(2-(2-carboxy-2-amino-5-(trifluoromethyl)adamantane)-2-oxoethyl)-2-oxo-1,2-dihydropyridin-3-yl)-N6-methyl-5-oxo-2-(3-oxo-1,2,3,4-tetrahydroisoquinoline-6-carboxamido)hexanediamide] |
| < 1 | < 1 | 40 to 400 | CNC(=O)C(=O)CC[C@H](NC(=O)c1cncn1C)C(=O)Nc1cccn(CC(=O)NC23CC4CC(CC(C4)C2)C3)c1=O [II-207, (S)-N1-(1-(2-(1-adamantylamino)-2-oxoethyl)-2-oxo-1,2-dihydropyridin-3-yl)-N6-methyl-2-(1-methyl-1H-imidazole-5-carboxamido)-5-oxohexanediamide] |
| 1 to 10 | 1 to 3 | 40 to 400 | CC1(C)[C@@H]2CC[C@@]1(C)[C@@H](NC(=O)Cn1cccc(NC(=O)[C@H](CCC(=O)C(N)=O)NC(=O)c3cc4ccccc4o3)c1=O)C2 [II-150, (S)-2-(benzofuran-2-carboxamido)-5-oxo-N1-(2-oxo-1-(2-oxo-2-((1R,2S,4R)-1,7,7-trimethylbicyclo[2.2.1]heptan-2-ylamino)ethyl)-1,2-dihydropyridin-3-yl)hexanediamide] |
| < 1 | 1 to 3 | 400 to 2500 | CC(C)(C)NC(=O)C(=O)CC[C@H](NC(=O)[C@@H]1CN2CCN1CC2)C(=O)Nc1cccn(CC(=O)NC2C3CC4CC(C3)CC2C4)c1=O (stereo partly drawn) [II-175, (S)-2-((S)-1,4-diazabicyclo[2.2.2]octane-2-carboxamido)-N6-tert-butyl-N1-(1-(2-(2-adamantylamino)-2-oxoethyl)-2-oxo-1,2-dihydropyridin-3-yl)-5-oxohexanediamide] |
| 1 to 10 | 1 to 3 | 400 to 2500 | O=C(Cn1cccc(NC(=O)[C@H](CCC(=O)C(=O)NC2CCCC2)NC(=O)c2cn3ccsc3n2)c1=O)N[C@@H]1C[C@@H]2CC[C@H]1C2 [II-179, (S)-N1-(1-(2-((1S,2R,4R)-bicyclo[2.2.1]heptan-2-ylamino)-2-oxoethyl)-2-oxo-1,2-dihydropyridin-3-yl)-N6-cyclopentyl-2-(imidazo[2,1-b]thiazole-6-carboxamido)-5-oxohexanediamide] |
| < 1 | < 1 | 400 to 2500 | CNC(=O)C(=O)CC[C@H](NC(=O)c1coc(S(N)(=O)=O)c1)C(=O)Nc1cccn(CC(=O)NC2C3CC4CC2CC(NC(C)=O)(C4)C3)c1=O (stereo partly drawn) [II-193, (S)-N1-(1-(2-(1-acetylamino-4-aminoadamantane)-2-oxoethyl)-2-oxo-1,2-dihydropyridin-3-yl)-N6-methyl-5-oxo-2-(5-sulfamoylfuran-3-carboxamido)hexanediamide] |
| 1 to 10 | 1 to 3 | < 40 | CNC(=O)C(=O)CC[C@H](NC(=O)c1sc(Br)nc1C)C(=O)Nc1cccn(CC(=O)NC2C3CC4CC(C3)CC2C4)c1=O (stereo partly drawn) [II-14, (S)--(2-bromo-4-methylthiazole-5-carboxamido)-N1-(1-(2-(2-adamantylamino)-2-oxoethyl)-2-oxo-1,2-dihydropyridin-3-yl)-N6-methyl-5-oxohexanediamide] |
| 1 to 10 | 3 to 5 | 40 to 400 | CNC(=O)C(=O)CC[C@H](NC(=O)c1ccc(Br)s1)C(=O)Nc1cccn(CC(=O)NC2C3CC4CC(C3)CC2C4)c1=O (stereo partly drawn) [II-23, (S)-2-(5-bromothiophene-2-carboxamido)-N1-(1-(2-(2-adamantylamino)-2-oxoethyl)-2-oxo-1,2-dihydropyridin-3-yl)-N6-methyl-5-oxohexanediamide] |
| 1 to 10 | 1 to 3 | 40 to 400 | CNC(=O)C(=O)CC[C@H](NC(=O)c1oc2ccccc2c1C)C(=O)Nc1cccn(CC(=O)NC2C3CCC2CC3)c1=O (stereo partly drawn) [II-96, (S)-N1-(1-(2-(bicyclo[2.2.1]heptan-7-ylamino)-2-oxoethyl)-2-oxo-1,2-dihydropyridin-3-yl)-N6-methyl-2-(3-methylbenzofuran-2-carboxamido)-5-oxohexanediamide] |
| < 1 | 1 to 3 | 400 to 2500 | CNC(=O)C(=O)CC[C@H](NC(=O)c1nccn1C)C(=O)Nc1cccn(CC(=O)NC[C@@H]2CC[C@H]3C[C@@H]2C3(C)C)c1=O [II-208, (S)-N1-(1-(2-(((1S,2R,5S)-6,6-dimethylbicyclo[3.1.1]heptan-2-yl)methylamino)-2-oxoethyl)-2-oxo-1,2-dihydropyridin-3-yl)-N6-methyl-2-(1-methyl-1H-imidazole-2-carboxamido)-5-oxohexanediamide] |
| < 1 | 1 to 3 | 40 to 400 | CNC(=O)C(=O)CC[C@H](NC(=O)[C@@H]1CCCN1C)C(=O)Nc1cccn(CC(=O)NC2C3CC4CC(C3)CC2C4)c1=O (stereo partly drawn) [II-54, (S)-N1-(1-(2-(2-adamantylamino)-2-oxoethyl)-2-oxo-1,2-dihydropyridin-3-yl)-N6-methyl-2-((S)-1-methylpyrrolidine-2-carboxamido)-5-oxohexanediamide] |
| < 1 | 1 to 3 | < 40 | CNC(=O)C(=O)CC[C@H](NC(=O)c1ccncc1)C(=O)Nc1cccn(CC(=O)NC2C3CC4CC(C3)CC2C4)c1=O (stereo partly drawn) [II-112, (S)-2-(isonicotinamido)-N1-(1-(2-(2-adamantylamino)-2-oxoethyl)-2-oxo-1,2-dihydropyridin-3-yl)-N6-methyl-5-oxohexanediamide] |
| < 1 | 1 to 3 | 400 to 2500 | Cc1nc2ncccc2cc1C(=O)N[C@@H](CCC(=O)C(=O)NC1CCCCC1)C(=O)Nc1cccn(CC(=O)NC23CC(C2)C3)c1=O [II-184, (S)-N1-(1-(2-(bicyclo[1.1.1]pentan-1-ylamino)-2-oxoethyl)-2-oxo-1,2-dihydropyridin-3-yl)-N6-cyclohexyl-2-(2-methyl-1,8-naphthyridine-3-carboxamido)-5-oxohexanediamide] |
| < 1 | < 1 | 40 to 400 | CNC(=O)C(=O)CC[C@H](NC(=O)c1nncs1)C(=O)Nc1cccn(CC(=O)NC23CC(C2)C3)c1=O [II-200, (S)-N1-(1-(2-(bicyclo[1.1.1]pentan-1-ylamino)-2-oxoethyl)-2-oxo-1,2-dihydropyridin-3-yl)-N6-methyl-5-oxo-2-(1,3,4-thiadiazole-2-carboxamido)hexanediamide] |
| < 1 | 1 to 3 | 40 to 400 | CNC(=O)C(=O)CC[C@H](NC(=O)c1cncc(C(=O)O)c1)C(=O)Nc1cccn(CC(=O)NC2C3CC4CC(C3)CC2C4)c1=O (stereo partly drawn) [II-64, (S)-5-(1-(1-(2-(2-adamantylamino)-2-oxoethyl)-2-oxo-1,2-dihydropyridin-3-ylamino)-6-(methylamino)-1,5,6-trioxohexan-2-ylcarbamoyl)nicotinic acid] |
| < 1 | < 1 | 400 to 2500 | CNC(=O)C(=O)CC[C@H](NC(=O)c1noc(C)n1)C(=O)Nc1cccn(CC(=O)NC23CC(C2)C3)c1=O [II-197, (S)-N1-(1-(2-(bicyclo[1.1.1]pentan-1-ylamino)-2-oxoethyl)-2-oxo-1,2-dihydropyridin-3-yl)-N6-methyl-2-(5-methyl-1,2,4-oxadiazole-3-carboxamido)-5-oxohexanediamide] |
| < 1 | < 1 | 40 to 400 | CNC(=O)C(=O)CC[C@H](NC(=O)c1snnc1C)C(=O)Nc1cccn(CC(=O)N[C@H]2C[C@H]3CC[C@]2(C)C3(C)C)c1=O [II-161, (S)-N1-methyl-5-(4-methyl-1,2,3-thiadiazole-5-carboxamido)-2-oxo-N6-(2-oxo-1-(2-oxo-2-((1R,2S,4R)-1,7,7-trimethylbicyclo[2.2.1]heptan-2-ylamino)ethyl)-1,2-dihydropyridin-3-yl)hexanediamide] |
| 1 to 10 | 1 to 3 | < 40 | CNC(=O)C(=O)CC[C@H](NC(=O)c1cc2ccccc2o1)C(=O)Nc1cccn(CC(=O)NC2C3CC4CC(C3)CC2C4)c1=O (stereo partly drawn) [II-2, (S)-2-(benzofuran-2-carboxamido)-N1-(1-(2-(2-adamantylamino)-2-oxoethyl)-2-oxo-1,2-dihydropyridin-3-yl)-N6-methyl-5-oxohexanediamide] |
